Key:
TEAD2 = TEAD2 (Homo sapiens, UniProt Q15562); assay: biochemical;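 note: TR-FRET competition assay with His-tagged TEAD protein and a biotinylated lipid pocket probe, where probe displacement by compound lowers the signal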
TEAD3 = TEAD3 (Homo sapiens, UniProt Q99594); assay: TR-FRET (Lipid HTRF) TEAD lipid pocket probe displacement assay, TEAD3; assay type: binding; settings: His-tagged TEAD3, biotinylated lipid pocket probe, 4 hours
Protocol: (§1) His-tagged TEAD proteins are pre-incubated with TEAD project compounds for 30 minutes or 4 hours at room temperature. Biotinylated lipid pocket probes are then added to the TEAD/Compound mixture and incubated for 60 minutes at room temperature. The lipid pocket probe competes with the test compound for the TEAD lipid pocket until equilibrium is reached. After 60 minutes, Europium labelled anti-His (Perkin Elmer #AD0110) and XL665 labelled streptavidin (CIS Bio 610SAXAC) are added to the TEAD/test compound/lipid pocket mixture and incubated for 30 minutes or 4 hours. TR-FRET values are then measured using an EnVision multi-label plate reader (Perkin Elmer Cat #2104-001 0A.) If the lipid pocket probe binds to TEAD as expected, a TR-FRET signal results from the proximity of anti-His Eu and XL665. If a TEAD lipid pocket binder such as binds and displaces the lipid pocket probe, the disruption of the TEAD:probe interaction results in a decrease in TR-FRET signal. The potency of compounds as TEAD lipid pocket binders is determined by IC50 value generated using a non-linear 4 parameter curve fit.

TEAD1 = TEAD1 (Homo sapiens, UniProt P28347); assay: TR-FRET (Lipid HTRF) TEAD lipid pocket probe displacement assay, TEAD1; assay type: binding; settings: His-tagged TEAD1, biotinylated lipid pocket probe, 4 hours
TEAD1, sequence (P28347 whole entry, species assumed): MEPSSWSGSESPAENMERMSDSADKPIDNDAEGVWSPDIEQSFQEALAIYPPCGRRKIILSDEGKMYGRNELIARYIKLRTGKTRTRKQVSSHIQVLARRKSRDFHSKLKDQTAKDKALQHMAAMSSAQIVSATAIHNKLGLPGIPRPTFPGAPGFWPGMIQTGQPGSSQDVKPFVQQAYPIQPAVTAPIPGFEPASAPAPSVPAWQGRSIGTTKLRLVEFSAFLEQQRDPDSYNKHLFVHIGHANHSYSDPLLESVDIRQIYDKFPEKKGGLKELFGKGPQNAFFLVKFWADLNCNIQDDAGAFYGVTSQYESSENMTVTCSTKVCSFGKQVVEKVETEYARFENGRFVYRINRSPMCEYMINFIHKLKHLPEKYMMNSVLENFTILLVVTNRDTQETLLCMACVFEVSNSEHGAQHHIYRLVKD
Protocol: as §1

TEAD4 = TEAD4 (Homo sapiens, UniProt Q15561); assay: TR-FRET (Lipid HTRF) TEAD lipid pocket probe displacement assay, TEAD4; assay type: binding; settings: His-tagged TEAD4, biotinylated lipid pocket probe, 4 hours
TEAD4, sequence (Q15561 whole entry, species assumed): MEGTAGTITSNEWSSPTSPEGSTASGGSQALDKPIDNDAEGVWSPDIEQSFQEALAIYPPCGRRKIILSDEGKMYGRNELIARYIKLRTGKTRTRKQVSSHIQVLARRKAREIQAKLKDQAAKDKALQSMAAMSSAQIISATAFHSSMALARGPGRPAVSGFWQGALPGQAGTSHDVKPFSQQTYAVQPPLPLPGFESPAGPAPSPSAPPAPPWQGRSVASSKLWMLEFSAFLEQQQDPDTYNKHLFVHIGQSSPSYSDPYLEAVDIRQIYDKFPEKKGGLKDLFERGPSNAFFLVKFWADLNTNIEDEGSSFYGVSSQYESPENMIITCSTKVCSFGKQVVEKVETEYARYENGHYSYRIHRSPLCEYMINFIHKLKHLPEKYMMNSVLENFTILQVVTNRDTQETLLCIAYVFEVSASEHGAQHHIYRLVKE
Protocol: as §1

TEAD2, sequence (Q15562 whole entry, species assumed): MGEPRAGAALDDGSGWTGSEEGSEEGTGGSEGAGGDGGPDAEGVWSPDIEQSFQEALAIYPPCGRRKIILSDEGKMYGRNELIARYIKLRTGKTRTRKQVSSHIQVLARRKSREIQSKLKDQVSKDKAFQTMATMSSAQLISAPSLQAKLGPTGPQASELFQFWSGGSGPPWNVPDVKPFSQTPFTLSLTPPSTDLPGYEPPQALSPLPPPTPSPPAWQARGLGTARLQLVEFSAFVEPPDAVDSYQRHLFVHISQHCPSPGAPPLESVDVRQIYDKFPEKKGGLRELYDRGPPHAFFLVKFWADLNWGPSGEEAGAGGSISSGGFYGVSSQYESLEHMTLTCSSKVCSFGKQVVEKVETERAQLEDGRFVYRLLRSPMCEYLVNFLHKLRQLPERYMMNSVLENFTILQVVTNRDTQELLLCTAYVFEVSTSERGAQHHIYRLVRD
TEAD3, sequence (Q99594 whole entry, species assumed): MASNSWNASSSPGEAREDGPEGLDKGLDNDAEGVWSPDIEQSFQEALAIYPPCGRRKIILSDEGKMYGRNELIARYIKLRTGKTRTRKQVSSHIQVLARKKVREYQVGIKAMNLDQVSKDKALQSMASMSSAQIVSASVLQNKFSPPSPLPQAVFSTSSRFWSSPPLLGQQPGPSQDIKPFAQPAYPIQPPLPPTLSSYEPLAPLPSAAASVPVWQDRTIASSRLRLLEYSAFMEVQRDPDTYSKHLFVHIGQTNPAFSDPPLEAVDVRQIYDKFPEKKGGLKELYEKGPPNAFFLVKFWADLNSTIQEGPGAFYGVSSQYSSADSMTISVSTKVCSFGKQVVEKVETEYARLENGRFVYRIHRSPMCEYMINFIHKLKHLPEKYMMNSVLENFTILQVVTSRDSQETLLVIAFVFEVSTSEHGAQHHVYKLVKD

C=CC(=O)NCc1cc(-c2ccc(OC(F)(F)F)cc2)c2ncn(C)c2c1C(F)F [Compound 77, N-[[4-(difluoromethyl)-3-methyl-7-[4-(trifluoromethoxy)phenyl]benzimidazol-5-yl]methyl]prop-2-enamide]
IC50 (TEAD2): 4 nM | IC50 (TEAD3): 110 nM | IC50 (TEAD1): 11 nM | IC50 (TEAD4): 2.5 nM

C=C(F)C(=O)NCc1cc(-c2ccc(OC(F)(F)F)cc2)c2nccnc2c1[C@@H](O)CO [Compound 80, (R)-N-((5-(1,2-Dihydroxyethyl)-8-(4-(trifluoromethoxy)phenyl)quinoxalin-6-yl)methyl)-2-fluoroacrylamide]
IC50 (TEAD2): 110 nM | IC50 (TEAD3): 840 nM | IC50 (TEAD1): 130 nM | IC50 (TEAD4): 740 nM

O=C(NCc1cc(-c2ccc(OC(F)(F)F)cc2)c2nccnc2c1[C@@H](O)CO)C1=CCC1 [Compound 81, (R)-N-((5-(1,2-Dihydroxyethyl)-8-(4-(trifluoromethoxy)phenyl)quinoxalin-6-yl)methyl)cyclobut-1-ene-1-carboxamide]
IC50 (TEAD2): 21 nM | IC50 (TEAD3): 220 nM | IC50 (TEAD1): 31 nM | IC50 (TEAD4): 13 nM

C=CC(=O)NCc1cc(-c2ccc(OC(F)(F)F)cc2)c2nccnc2c1CO [Compound 84, N-((5-(Hydroxymethyl)-8-(4-(trifluoromethoxy)phenyl)quinoxalin-6-yl)methyl)acrylamide]
IC50 (TEAD2): 21 nM | IC50 (TEAD3): 38.7 nM | IC50 (TEAD1): 26.7 nM | IC50 (TEAD4): 48 nM

C=CC(=O)NCc1cc(-c2ccc(OC(F)(F)F)cc2)c2nccnc2c1C#N [Compound 85, N-((5-Cyano-8-(4-(trifluoromethoxy)phenyl)quinoxalin-6-yl)methyl)acrylamide]
IC50 (TEAD2): 121 nM | IC50 (TEAD3): 127 nM | IC50 (TEAD1): 78 nM | IC50 (TEAD4): 88.7 nM

O=C(C1=CCC1)N1CC(c2cc(-c3ccc(OC(F)(F)F)cc3)c3nccnc3c2[C@@H](O)CO)C1 [Compound 86, (R)-Cyclobut-1-en-1-yl(3-(5-(1,2-dihydroxyethyl)-8-(4-(trifluoromethoxy)phenyl)quinoxalin-6-yl)azetidin-1-yl)methanone]
IC50 (TEAD2): 38 nM | IC50 (TEAD3): 230 nM | IC50 (TEAD1): 120 nM | IC50 (TEAD4): 32 nM

O=C(C1=CCC1)N1CC(c2cc(-c3ccc(OC(F)(F)F)cc3)c3nccnc3c2[C@H](O)CO)C1 [Compound 87, (S)-Cyclobut-1-en-1-yl(3-(5-(1,2-dihydroxyethyl)-8-(4-(trifluoromethoxy)phenyl)quinoxalin-6-yl)azetidin-1-yl)methanone]
IC50 (TEAD2): 16 nM | IC50 (TEAD3): 140 nM | IC50 (TEAD1): 50 nM | IC50 (TEAD4): 11 nM

C=CC(=O)N(C)Cc1cc(-c2ccc(OC(F)(F)F)cc2)c2c(c1CO)CCO2 [Compound 88, N-((4-(Hydroxymethyl)-7-(4-(trifluoromethoxy)phenyl)-2,3-dihydrobenzofuran-5-yl)methyl)-N-methylacrylamide]
IC50 (TEAD2): 6.7 nM | IC50 (TEAD3): 7.4 nM | IC50 (TEAD1): 4.4 nM | IC50 (TEAD4): 3.1 nM

C#Cc1ccc(-c2cc(CNC(=O)C=C)c(CO)c3c2OCC3)cc1 [Compound 93, N-((7-(4-Ethynylphenyl)-4-(hydroxymethyl)-2,3-dihydrobenzofuran-5-yl)methyl)acrylamide]
IC50 (TEAD2): 540 nM | IC50 (TEAD3): 1100 nM | IC50 (TEAD1): 880 nM | IC50 (TEAD4): 490 nM

C#Cc1ccc(-c2cc(CN(C)C(=O)C=C)c(CO)c3c2OCC3)cc1 [Compound 94, N-((7-(4-Ethynylphenyl)-4-(hydroxymethyl)-2,3-dihydrobenzofuran-5-yl)methyl)-N-methylacrylamide]
IC50 (TEAD2): 67 nM | IC50 (TEAD3): 56 nM | IC50 (TEAD1): 44 nM | IC50 (TEAD4): 13 nM

C=CC(=O)N(C)Cc1cc(-c2ccc(OC(F)(F)F)cc2)c2c(c1C#N)CCO2 [Compound 95, N-((4-cyano-7-(4-(trifluoromethoxy)phenyl)-2,3-dihydrobenzofuran-5-yl)methyl)-N-methylacrylamide]
IC50 (TEAD2): 8.8 nM | IC50 (TEAD3): 9.5 nM | IC50 (TEAD1): 8.6 nM | IC50 (TEAD4): 3.8 nM

C=CC(=O)N(CC)Cc1nc(-c2ccc(OC(F)(F)F)cc2)c2ncsc2n1 [Compound 98, N-Ethyl-N-((7-(4-(trifluoromethoxy)phenyl)thiazolo[5,4-d]pyrimidin-5-yl)methyl)acrylamide]
IC50 (TEAD2): 140 nM | IC50 (TEAD3): 680 nM | IC50 (TEAD1): 710 nM | IC50 (TEAD4): 48 nM

C=CC(=O)N1CC(c2nc(-c3ccc(OC(F)(F)F)cc3)c3ncsc3n2)C1 [Compound 99, 1-(3-(7-(4-(Trifluoromethoxy)phenyl)thiazolo[5,4-d]pyrimidin-5-yl)azetidin-1-yl)prop-2-en-1-one]
IC50 (TEAD2): 4.3 nM | IC50 (TEAD3): 3.1 nM | IC50 (TEAD1): 3.7 nM | IC50 (TEAD4): 2.7 nM

C=CC(=O)NCc1nc(C23CC(C(C)C)(C2)C3)c2ncsc2n1 [Compound 102, N-((7-(3-Isopropylbicyclo[1.1.1]pentan-1-yl)thiazolo[5,4-d]pyrimidin-5-yl)methyl)acrylamide]
IC50 (TEAD2): 310 nM | IC50 (TEAD3): 110 nM | IC50 (TEAD1): 120 nM | IC50 (TEAD4): 23 nM

C=CC(=O)NCc1cc(-c2ccc(OC(F)(F)F)cc2)c2ncsc2c1-c1noc(=O)[nH]1 [Compound 104, N-((7-(5-Oxo-4,5-dihydro-1,2,4-oxadiazol-3-yl)-4-(4-(trifluoromethoxy)phenyl)benzo[d]thiazol-6-yl)methyl)acrylamide]
IC50 (TEAD2): 80 nM | IC50 (TEAD3): 27 nM | IC50 (TEAD1): 95 nM | IC50 (TEAD4): 40 nM

C=CC(=O)NCc1cc(-c2ccc(OC(F)(F)F)cc2)c2ncoc2c1CO [Compound 113, N-((7-(Hydroxymethyl)-4-(4-(trifluoromethoxy)phenyl)benzo[d]oxazol-6-yl)methyl)acrylamide]
IC50 (TEAD2): 24 nM | IC50 (TEAD3): 44 nM | IC50 (TEAD1): 24 nM | IC50 (TEAD4): 31 nM

C=CC(=O)NCc1cc(-c2ccc(OC(F)(F)F)nc2)c2ncoc2c1CO [Compound 114, N-((7-(Hydroxymethyl)-4-(6-(trifluoromethoxy)pyridin-3-yl)benzo[d]oxazol-6-yl)methyl)acrylamide]
IC50 (TEAD2): 350 nM | IC50 (TEAD3): 700 nM | IC50 (TEAD1): 480 nM | IC50 (TEAD4): 740 nM

C=CC(=O)NC1CN(c2nc(-c3ccc(OC(F)(F)F)cc3)c3ncn(C)c3n2)C1 [Compound 127, N-(1-(9-Methyl-6-(4-(trifluoromethoxy)phenyl)-9H-purin-2-yl)azetidin-3-yl)acrylamide]
IC50 (TEAD2): 28 nM | IC50 (TEAD3): 420 nM | IC50 (TEAD1): 26 nM | IC50 (TEAD4): 23 nM

Cn1cnc2c(-c3ccc(OC(F)(F)F)cc3)nc(C3(C#N)CN(C(=O)/C=C/CO)C3)nc21 [Compound 128, (E)-1-(4-Hydroxybut-2-enoyl)-3-(9-methyl-6-(4-(trifluoromethoxy)phenyl)-9H-purin-2-yl)azetidine-3-carbonitrile]
IC50 (TEAD2): 21 nM | IC50 (TEAD3): 9.9 nM | IC50 (TEAD1): 11 nM | IC50 (TEAD4): 2.7 nM

C=C1CCN(Cc2nc(-c3ccc(OC(F)(F)F)cc3)c3ncn(C)c3n2)C1=O [Compound 129, 1-((9-Methyl-6-(4-(trifluoromethoxy)phenyl)-9H-purin-2-yl)methyl)-3-methylenepyrrolidin-2-one]
IC50 (TEAD2): 1100 nM | IC50 (TEAD3): 1350 nM | IC50 (TEAD1): 600 nM | IC50 (TEAD4): 24.5 nM

C=CC(=O)NCc1nc(N2CCC(C(F)(F)F)CC2)c2ncn(C)c2n1 [Compound 130, N-((9-Methyl-6-(4-(trifluoromethyl)piperidin-1-yl)-9H-purin-2-yl)methyl)acrylamide]
IC50 (TEAD2): 1000 nM | IC50 (TEAD3): 440 nM | IC50 (TEAD1): 410 nM | IC50 (TEAD4): 140 nM

C=CC(=O)NCc1nc(N2CCC(OC(F)(F)F)CC2)c2ncn(C)c2n1 [Compound 131, N-((9-Methyl-6-(4-(trifluoromethoxy)piperidin-1-yl)-9H-purin-2-yl)methyl)acrylamide]
IC50 (TEAD2): 1600 nM | IC50 (TEAD3): 1200 nM | IC50 (TEAD1): 400 nM | IC50 (TEAD4): 81 nM

C=C(F)C(=O)N1CC(c2nc(-c3ccc(OC(F)(F)F)cc3)c3ncn(C(F)F)c3n2)C1 [Compound 132, 1-(3-(9-(Difluoromethyl)-6-(4-(trifluoromethoxy)phenyl)-9H-purin-2-yl)azetidin-1-yl)-2-fluoroprop-2-en-1-one]
IC50 (TEAD2): 150 nM | IC50 (TEAD3): 100 nM | IC50 (TEAD1): 6.9 nM | IC50 (TEAD4): 24 nM

C=CC(=O)NCc1nc(-c2ccc(OC(F)(F)F)cc2)nc2c1ncn2C [Compound 133, N-((9-Methyl-2-(4-(trifluoromethoxy)phenyl)-9H-purin-6-yl)methyl)acrylamide]
IC50 (TEAD2): 360 nM | IC50 (TEAD3): 420 nM | IC50 (TEAD1): 52 nM | IC50 (TEAD4): 28 nM

C=C(F)C(=O)N1CC(n2cc(-c3ccc(OC(F)(F)F)cc3)c3nccnc3c2=O)C1 [Compound 134, 6-(1-(2-Fluoroacryloyl)azetidin-3-yl)-8-(4-(trifluoromethoxy)phenyl)pyrido[3,4-b]pyrazin-5(6H)-one]
IC50 (TEAD2): 1700 nM | IC50 (TEAD3): 310 nM | IC50 (TEAD1): 200 nM | IC50 (TEAD4): 650 nM

C=C(F)C(=O)N1CC(n2cc(-c3ccc(OC(F)(F)F)cc3)c3ncn(C)c3c2=O)C1 [Compound 136, 5-(1-(2-Fluoroacryloyl)azetidin-3-yl)-3-methyl-7-(4-(trifluoromethoxy)phenyl)-3,5-dihydro-4H-imidazo[4,5-c]pyridin-4-one]
IC50 (TEAD2): 30 nM | IC50 (TEAD3): 47 nM | IC50 (TEAD1): 18 nM | IC50 (TEAD4): 12 nM

Cn1cnc2c(-c3ccc(OC(F)(F)F)cc3)cn(C3CN(C(=O)/C=C/CO)C3)c(=O)c21 [Compound 137, (E)-5-(1-(4-Hydroxybut-2-enoyl)azetidin-3-yl)-3-methyl-7-(4-(trifluoromethoxy)phenyl)-3,5-dihydro-4H-imidazo[4,5-c]pyridin-4-one]
IC50 (TEAD2): 94 nM | IC50 (TEAD3): 95 nM | IC50 (TEAD1): 75 nM | IC50 (TEAD4): 14 nM

C=CC(=O)NCc1cc(-c2ccc(OC(F)(F)F)cc2)c2ncn(C)c2c1NCCO [Compound 140, N-((7-((2-Hydroxyethyl)amino)-1-methyl-4-(4-(trifluoromethoxy)phenyl)-1H-benzo[d]imidazol-6-yl)methyl)acrylamide]
IC50 (TEAD2): 47 nM | IC50 (TEAD3): 3000 nM | IC50 (TEAD1): 27 nM | IC50 (TEAD4): 43 nM

From patent US12275745B2, “Therapeutic compounds and methods of use” (Genentech, Inc., priority 2021, dated 2025)
